Data on four compounds can be found in US20050113319A1, “11-Deoxy-6,9-ether erythromycin compounds” (priority 2003, published 2005).

Converted amounts (≈) assume the structure as drawn. Where two headings read alike, the source gives them in different places.

The target of experiment [1] is T1, motilin receptor (Homo sapiens, UniProt O43193). Kind of experiment: Motilin agonist activity (activation of the motilin receptor). It is filed as cell-based. As to the method: Compounds of this invention were tested for motilin agonist activity, following the procedure of Carreras et al., Anal. Biochem., 300, 146-151 (2002), the disclosure of which is incorporated herein by reference.
T1 sequence (O43193 whole entry): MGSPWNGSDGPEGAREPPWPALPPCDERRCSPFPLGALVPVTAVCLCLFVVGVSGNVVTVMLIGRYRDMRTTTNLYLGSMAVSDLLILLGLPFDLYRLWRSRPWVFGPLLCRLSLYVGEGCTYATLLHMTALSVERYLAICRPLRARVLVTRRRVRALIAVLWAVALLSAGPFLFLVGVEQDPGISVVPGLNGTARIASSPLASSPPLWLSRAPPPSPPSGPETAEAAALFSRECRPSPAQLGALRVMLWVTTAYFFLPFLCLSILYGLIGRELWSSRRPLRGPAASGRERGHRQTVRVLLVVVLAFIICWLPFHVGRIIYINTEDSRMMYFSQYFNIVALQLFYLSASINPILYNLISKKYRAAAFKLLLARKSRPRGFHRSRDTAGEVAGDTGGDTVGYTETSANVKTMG

The test system of experiment [2] is Streptococcus pneumoniae ATCC 6301. Description: In vitro antibacterial activity. It is filed as cell-based. The note with it: ATCC6301. Here is the method: Compounds of this invention were tested for in vitro activity against Streptococcus pneumoniae ATCC 6301, an erythromycin-sensitive strain, using methods known in the microbiological art.
Experiment [3] deals with T1, motilin receptor. Kind of experiment: Motilin receptor desensitization, cell-based assay. As to conditions: for Activity retained following exposure, 1 μM Compound: motilin receptor activity retained after exposure to 1 μM test compound; for Activity retained following exposure, 10 μM Compound: motilin receptor activity retained after exposure to 10 μM test compound. As to the method:
Compounds were tested for motilin receptor desensitization using the cell-based assay described in Carreras et al., U.S. 2002/0192709 A1 (2002), “Methods for Evaluating Therapeutic Efficacy,” incorporated herein by reference. Briefly, the test measures the extent of motilin receptor activity retained after exposure to varying amounts (1 and 10 μM) of test compound.

In general, EC50 refers to the concentration giving half of the maximal effect. A high value points to a need for much substance. Usually MIC stands for the lowest concentration found to suppress growth. Turning to `CC[C@H]1OC(=O)[C@H](C)[C@@H](O[C@H]2C[C@@](C)(OC)C[C@H](C)O2)[C@H](C)[C@@H](O[C@@H]2O[C@H](C)C[C@H](N(C)C)[C@H]2O)[C@@]2(C)C[C@@H](C)[C@H](O2)[C@H](C)C[C@H]1C` [Compound IVa], the concentration giving a half-maximal response (EC50) at motilin receptor [1] is 42 nM. In experiment [2] (Streptococcus pneumoniae), this compound gave a minimal inhibitory concentration (MIC) of 25 µg/mL (≈ 37.3 µM). At motilin receptor [3], the “Activity retained following exposure, 1 μM Compound” value is 24 % of original and the “Activity retained following exposure, 10 μM Compound” value is 7 % of original.
In turn, `CC[C@H]1OC(=O)[C@H](C)[C@@H](O[C@H]2C[C@@](C)(OC)[C@@H](O)[C@H](C)O2)[C@H](C)[C@@H](O[C@@H]2O[C@H](C)C[C@H](N(C)C)[C@H]2O)[C@@]2(C)C[C@@H](C)[C@H](O2)[C@H](C)C[C@H]1C` [Compound IVb] had an EC50 at motilin receptor [1] of 230 nM. The compound further came in with a minimum inhibitory concentration (MIC) in experiment [2] (Streptococcus pneumoniae) of 100 µg/mL (≈ 146 µM). In addition, at motilin receptor [3], the “Activity retained following exposure, 1 μM Compound” value is 57 % of original and the “Activity retained following exposure, 10 μM Compound” value is listed as 49 % of original.
On the same counts, the results for `CC[C@H]1OC(=O)[C@H](C)[C@@H](O[C@H]2C[C@@](C)(OC)C[C@H](C)O2)[C@H](C)[C@@H](O[C@@H]2O[C@H](C)C[C@H](N(C)C(C)C)[C@H]2O)[C@@]2(C)C[C@@H](C)[C@H](O2)[C@H](C)C[C@H]1C` [Compound IVc] are 13 nM, 50 µg/mL (≈ 71.6 µM), 9 % of original and 5 % of original.
On to `CC[C@H]1OC(=O)[C@H](C)[C@@H](O[C@H]2C[C@@](C)(OC)C[C@H](C)O2)[C@H](C)[C@@H](O[C@@H]2O[C@H](C)C[C@H](N(C)CCF)[C@H]2O)[C@@]2(C)C[C@@H](C)[C@H](O2)[C@H](C)C[C@H]1C` [Compound IVd], for which, at motilin receptor [1], the half-maximal effective concentration (EC50) stood at 45 nM. Besides, the MIC in experiment [2] (Streptococcus pneumoniae ATCC 6301, erythromycin-sensitive strain, read-out: MIC) was more than 100 µg/mL. For the same compound, at motilin receptor [3], the “Activity retained following exposure, 1 μM Compound” value is 7 % of original and the “Activity retained following exposure, 10 μM Compound” value is listed as 5 % of original.
